In US4225619A, “Substituted fluoracylresorcinols” (Boehringer Ingelheim GmBH, priority 1976, dated 1980):
In brackets after ≈: the same amount, converted by molar mass.

Columns and labels:
[1] = test system: HeLa-cell culture; assay: Inhibition of HeLa cell cultures; type: cell-based; settings: Homo sapiens, 72 h, 37° C. for 3 days, 5% carbon dioxide; for IC50: read-out: ED50, HeLa cell culture; for minimal effective concentration: read-out: Minimal inhibitory concentration, HeLa cell culture
Description: Measurement of the inhibition of cell cultures
HeLa-cell culture was treated with trypsin and adjusted to a cell number of 150,000 cells/ml of fresh medium. The substance was always dissolved in the same quantity of dimethyl sulfoxide and then further diluted with growth medium. 0.1 ml of the substance-dilutions were added to each well of microtiter plates and then 0.2 ml of cell suspension were added (4 wells per dilution). Several growth controls containing 0.1 ml of growth medium instead of 0.1 ml of substance dilution were put up. After careful mixing, the cultures were incubated at 37° C. for 3 days in a 5% carbon dioxide atmosphere. The reading was effected in comparison with these controls. The results were given as the percentage of the deficiency and degeneration compared to the growth control. […] The statements are referred to μg of substance per ml of total medium.

[2] = target: glucose-6-phosphate-dehydrogenase; assay: Inhibition of glucose-6-phosphate-dehydrogenase (G6PDH); type: biochemical; settings: for G6PDH-inhibition Ed50, Immediate Inhibition: 25° C. for 5 minutes preincubation; for G6PDH-inhibition Ed50, Inhibition of Incubation: 37° C. for 60 minutes preincubation
Description: Measurement of the inhibition of the glucose-6-phosphatedehydrogenase
The equilibrium was observed:
Glucose-6-phosphate+NADP^+ G6-DH gluconic
acid-6-phosphate+NADPH+H^+
(NADP=nicotinamide-adenine-dinycleotide-phosphate, G6P-DH=gluconic acid-6-phosphate-dehydrogenase)
The formation velocity of NADPH is a measure for the enzyme activity; it may be observed by means of the extinction increase at 340, 334 or 366 nm per unit of time.
0.025 ml of glucose-6-phosphate-dehydrogenase (Boehringer Mannheim) were filled up to 10 ml of distilled water (solution I). 100 mgm of nicotinamide-adenine-dinucleotide-phosphate were dissolved in 13 ml of distilled water (solution II). 47.2 mgm of glucose-6-phosphate were dissolved in further 10 ml of distilled water (solution 3). Simultaneously a buffer solution (solution IV) was prepared as follows: 0.28 gm of triethanolamine-hydrochloride and 1.461 gm of ethylene diaminotetraacetic acid-disodium salt were dissolved in 1 liter of distilled water and adjusted to a pH of 7.6 with sodium hydroxide solution. The substance under test was dissolved in dimethyl formamide or ethanol (solution V). Tested concentrations: 50; 25; 12.5; 6.25; 3.125; 1.56 and 0.78 μg/ml.
0.1 ml of solution I, 0.1 ml of solution II, 2.67 ml of solution IV and 0.03 ml of solution V were mixed and kept at 25° C. for 5 minutes. Then 0.1 ml of solution III was added, mixed and the alteration of extinction was determined spectrophotometrically at 366 nm for 3 minutes.
0.1 ml of solution I, 0.1 ml of solution II, 2.67 ml of solution IV and 0.03 ml of solution V were mixed and kept at 37° C. for 60 minutes. Then 0.1 ml of solution III was added, mixed and the alteration of extinction was measured spectrophotometrically at 366 nm for 3 minutes.
The inhibitory values were calculated from the average values of three measurements (alteration of extinction per minute) compared with controls, which received the pure solvent as the inhibitory solution. Then the ED50 was calculated according to Reed and Muench from the inhibitory values for the various concentrations.

[3] = test system: Corynebacterium acnes; assay: Serial dilution test for Corynebacterium acnes; type: cell-based; settings: for MIC: Cutibacterium acnes, 37° C. for 48 hours, read-out: MIC, S.D.T., Corynebacterium acnes
Description: Serial dilution test for Corynebacterium acnes and Pityrosporum ovale Nutrient medium
For Corynebacterium acnes: thioglycolate-broth for Pityrosporum ovale: Littmann's broth, 5 ml per tube.
Suspension of microorganisms in 0.9% sodium chloride solution, standardized using a photometer according to Eppendorf by means of a suspension for comparison consisting of barium sulfate, for Corynebacterium acnes in a dilution of 1:100, for Pityrosporum ovale in an undiluted state. 0.1 ml of the suspensions was used per test tube. Dimethyl sulfoxide served as a solvent for the substances.
The suspension with Corynebacteria acnes was incubated at 37° C. for 48 hours, the suspension of Pityrosporum ovale at 27° C. for 7 days. The reading was effected by macroscopic evaluation of the growth of microorganisms and registration of the minimal inhibitory concentration.

[4] = test system: Staphylococcus aureus SG 511; assay: Serial dilution test; type: cell-based; settings: Staphylococcus aureus, SG511, 18-20 hours at 37° C., read-out: MIC, S.D.T., Staphylococcus aureus SG 511
Description: The inhibitory effect on bacteria and fungi was examined by the serial dilution test and the agar diffusion test (hole-test). As bacteria were used: Staphylococcus aureus SG 511, Streptococcus Aronson, Streptococcus pyogenes At CC 86 68; as fungi: Candida albicans AT CC 10231, Trichophyton mentagrophytes AT CC 9129 and Aspergillus niger.
1. Meat extract broth: for St. aureus SG 511
The age of the primary cultures is 24 hours for bacteria and 14 days for fungi. The standardization of the suspension of microorganisms is effected using a photometer according to Eppendorf (test tube .phi.14 mm, filter 546 nm) and a suspension for comparison consisting of barium sulfate, this suspension being created by adition of 3.0 ml of 1% barium chloride solution to 97 ml of 1% sulfuric acid. After the standardization the bacteria were further diluted to a concentration of 1:1000 by means of sodium chloride solution, the fungi were used in an undiluted state.
40 mgm of the substance were put into a 10 ml measuring flask and filled up to the mark with the solvent (corresponds to a dilution of 1:250=4000 μg/ml). The further dilution series was standardized with distilled water or the respective solvent and the following substance concentrations were prepared: 1000; 250; 62.5 μg/ml.
The tubes were filled with 4.9 ml of the corresponding liquid nutrient medium. Then 0.1 ml of the substance dilution prepared above was added to each tube, so that the mentioned final concentrations were present. Finally each tube was inoculated with 0.1 ml of the standardized suspension of microorganisms. Control tests merely using the solvent are to be carried out simultaneously.
Bacteria were incubated at 37° C. for 18-20 hours and fungi at 27° C. for 7 days.
The measurement is carried out macroscopically defining the minimal inhibitory concentration (the lowest still microbiostatically effective concentration).

[5] = test system: Pityrosporum ovale CBS 1878; assay: Agar diffusion test for Pityrosporum ovale CBS 1878; type: cell-based; settings: Malassezia furfur, CBS1878, 168 h, 7 days at 27° C., read-out: MIC, A.D.T., Pityrosporum ovale
Description: Agar diffusion test for Pityrosporum ovale CBS 1878 Nutrient medium
Littmann's agar, 23 ml per Petri dish, diameter of dish 100 mm.
Suspension of microorganisms in 0.9% sodium chloride solution, standardized using a photometer according to Eppendorf by means of a suspension for comparison consisting of barium sulfate. 0.05 ml per plate were used. The test substances were dissolved in dimethyl sulfoxide. The incubation time was 7 days at 27° C.; the area of inhibition in mm was measured, 0.05 ml of the solution of the substance were used for each punch-hole of a diameter of 6 mm. The results of these tests are recorded in the following tables 1 and 2: […]

IC50 [1] | G6PDH-inhibition Ed50, Immediate Inhibition [2] | G6PDH-inhibition Ed50, Inhibition of Incubation [2] | MIC [3] | MIC [4] | MIC [5] | Compound | minimal effective concentration [1] | Concentration with reduced growth (value in brackets), S.D.T., Corynebacterium acnes ([3]; reduced growth at this concentration)
3.52 µg/mL (≈ 14.2 µM) | 14.8 µg/mL | 9.9 µg/mL | 5 µg/mL (≈ 20.1 µM) | 1.25 µg/mL (≈ 5.04 µM) |  | CC(C)c1c(O)ccc(C(=O)C(F)(F)F)c1O [P, 2,4-Dihydroxy-3-isopropyl-trifluoroacetophenone] | 1.56 µg/mL | 1.25 µg/mL
 | 37.5 µg/mL | 20 µg/mL | 1.25 µg/mL (≈ 5.34 µM) | 5 µg/mL (≈ 21.4 µM) | 1000 µg/mL (≈ 4270 µM) | CCc1c(O)ccc(C(=O)C(F)(F)F)c1O [C, 3-Ethyl-2,4-dihydroxy-trifluoroacetophenone, reference compound] |  | 
4.2 µg/mL (≈ 13.9 µM) |  |  | 1.25 µg/mL (≈ 4.14 µM) | 0.31 µg/mL (≈ 1.03 µM) | 1000 µg/mL (≈ 3310 µM) | CC1CCC(c2c(O)ccc(C(=O)C(F)(F)F)c2O)CC1 (stereo not drawn) [H, 2,4-Dihydroxy-3-(4'-methyl)-cyclohexyl-trifluoro-acetophenone] | ≤ 0.78 µg/mL | 
90.1 µg/mL (≈ 385 µM) | > 50 µg/mL | > 50 µg/mL | > 80 µg/mL | > 80 µg/mL | > 4000 µg/mL | COc1ccc(C(=O)C(F)(F)F)c(OC)c1 [D, 2,4-Dimethoxy-trifluoroacetophenone, reference compound] | 25 µg/mL | 
9.75 µg/mL (≈ 41.6 µM) | 34.5 µg/mL | 30 µg/mL | 20 µg/mL (≈ 85.4 µM) | 20 µg/mL (≈ 85.4 µM) | 1000 µg/mL (≈ 4270 µM) | CCc1cc(C(=O)C(F)(F)F)c(O)cc1O [B, 5-Ethyl-2,4-dihydroxy-trifluoroacetophenone, reference compound] | 6.25 µg/mL | 
12.5 µg/mL (≈ 60.6 µM) | > 50 µg/mL | 33 µg/mL | 80 µg/mL (≈ 388 µM) | 80 µg/mL (≈ 388 µM) | 1000 µg/mL (≈ 4850 µM) | O=C(c1ccc(O)cc1O)C(F)(F)F [A, 2,4-Dihydroxy-trifluoroacetophenone, reference compound] | 3.13 µg/mL | 
7.7 µg/mL (≈ 29.4 µM) | 37.7 µg/mL | 27.7 µg/mL | 0.31 µg/mL (≈ 1.18 µM) | 0.08 µg/mL (≈ 0.305 µM) | 250 µg/mL (≈ 953 µM) | CC(C)Cc1c(O)ccc(C(=O)C(F)(F)F)c1O [F, 2,4-Dihydroxy-3-iso-butyl-trifluoroacetophenone] | 0.78 µg/mL | 
